Experiments:
II1β mRNA = assay: Real-time RT-PCR of colonic II1β mRNA; type: in vivo, mice
Procedure: (§1) Total RNA from colonic tissue was extracted using TRIzol® kit (Invitrogen, Carlsbad, Calif., United States of America). Complementary DNA was prepared using M-MLV (Invitrogen). Messenger RNA levels of proinflammatory genes were determined using SYBR® Green PCR Master Mix (Applied Biosystems, Carlsbad, Calif., United States of America) on an ABI 7900HT Fast Real-Time PCR System and normalized to Gapdh. The polymerase chain reactions were performed according to the manufacturer's recommendation. The following gene primers were used: Gapdh_forward: 5′-[…]-3′ (SEQ ID NO: 2), Gapdh_reverse: 5′-[…]-3′ (SEQ ID NO: 3), II-1_forward: 5′-[…]-3′ (SEQ ID NO: 4), II-1_reverse: 5′-[…]-3′ (SEQ ID NO: 5), Cxcl2_forward: 5′-[…]-3′ (SEQ ID NO: 6), Cxcl2_reverse: 5′-[…]-3′ (SEQ ID NO: 7), II-17a_forward: 5′-[…]-3′ (SEQ ID NO: 8), II-17a_reverse: 5′-[…]-3′ (SEQ ID NO: 9), II12p40_forward: […] (SEQ ID NO: 10), II12p40_reverse: […] (SEQ ID NO: 11), Tnf forward: […] (SEQ ID NO: 12), Tnf reverse: […] (SEQ ID NO: 13).
(§2) Total RNA from intestinal tissues was extracted using TRIzol® kit (Invitrogen, Carlsbad, Calif., United States of America) following the manufacture's guide. cDNA was reverse-transcribed using M-MLV (Invitrogen). Proinflammatory 111β, Cxcl2, II17a and Tnfα mRNA expression levels were measured using SYBR® Green PCR Master mix (Applied Biosystems, Carlsbad, Calif., United States of America) on an ABI 7900HT Fast Real-Time PCR System and normalized to Gapdh. The PCR primers used were reported previously. (Sun et al., 2012). The PCR reactions were performed for 40 cycles according to the manufacturer's recommendation, and RNA fold changes were calculated using the ΔΔct method.

Cxcl2 mRNA = assay: Real-time RT-PCR of colonic Cxcl2 mRNA; type: in vivo, mice
Procedure: as §1, §2

II-17a mRNA = assay: Real-time RT-PCR of colonic II-17a mRNA; type: in vivo, mice
Procedure: as §1, §2

II-12p40 mRNA = assay: Real-time RT-PCR of colonic II-12p40 mRNA; type: in vivo, mice; conditions: rapamycin treatment
Procedure: as §1

Tnfα mRNA = assay: Real-time RT-PCR of colonic Tnfα mRNA; type: in vivo, mice; conditions: rapamycin treatment
Procedure: as §1

IL-1β = assay: ELISA of IL-1β secreted from cultured colon explants and MLN; type: in vivo; conditions: rapamycin-treated infected mice vs control
Procedure: (§3) Colonic tissue, MLNs, and spleen were weighed, minced with scissors, and incubated in 1 mL 3% fetal bovine serum and 1% antibiotics RPMI medium in a 24-well plate. After 18-hour incubation, medium was collected and centrifuged at 7000 rpm for 5 minutes. Supernatant was collected and stored at −80° C. IL-1β and IL-17 (A) concentrations were assessed by enzyme-linked immunosorbent assay kits (R&D Systems, Minneapolis, Minn., United States of America) following the manufacturer's specification. The IL-17 enzyme-linked immunosorbent assay has no cross-reactivity to IL-17B, C, D, E, and F.

IL-17 = assay: ELISA of IL-17 secreted from cultured colon explants and MLN; type: in vivo; conditions: rapamycin-treated infected mice vs control
Procedure: as §3

Gr-1+/CD45+ cells = assay: Flow cytometry of peripheral blood neutrophils (Gr-1+/CD45+); type: in vivo; conditions: rapamycin-treated infected vs untreated infected mice
Procedure: To assess blood neutrophils, mice were sacrificed and peripheral blood was drawn and mixed with an anticoagulant (20 μL 96 mmol/L EDTA). White blood cells were collected following erythrocyte lysis. The cells were then incubated with antibodies against CD45 (PE conjugated), Gr-1 (fluorescein isothiocyanate conjugated) (eBiosciences, San Diego, Calif., United States of America). To analyze the change of CD4^+ cells after antibody-mediated depletion, freshly isolated splenocytes and MLNs from C jejuni-infected mice were then incubated with PE-conjugated antibodies against CD4 (eBiosciences, San Diego, Calif., United States of America). The cells were analyzed on a Cyan flow cytometer (Beckman Coulter, Inc., Brea, Calif., United States of America) to determine the proportion of total immune cells, neutrophils, or CD4^+ T cells, respectively. The results were then analyzed on Summit software (Beckman Coulter, Inc., Brea, Calif., United States of America).

C. jejuni = type: in vivo, mice; conditions: colon, rapamycin treatment vs infected untreated mice
Text: All animal protocols were approved by the Institutional Animal Care and Use Committee of the University of North Carolina at Chapel Hill (Chapel Hill, N.C., United States of America). Germ-free 8 to 12 week old II10^−/−; NF-κBEGFP (129/SvEv; C57BL/6 mixed background) mice were transferred from germ-free isolators and immediately gavaged with 10^9 C. jejuni cfu/mouse (strain 81-176 (Korlath et al., 1985)). Mice were then housed under Specific Pathogen-Free (SPF) conditions and sacrificed at 5 or 12 days. Germ-free II10^−/−; NF-κB^EGFP mice were also gavaged with 10^7 Salmonella typhimurium (S. typhimurium strain CA32) cfu/mouse for 2 days or 10^7 Escherichia coli (E. coli strain NC 101) cfu/mouse for 12 days. Conventionally-derived II10^−/−; NF-κB^EGFP mice were put on an antibiotic cocktail (streptomycin 2 g/L, gentamycin 0.5 g/L, bacteriocin 1 g/L and ciprofloxacin 0.125 g/L) in water for 7 days and antibiotics withdrawn 24 hours prior to infection. The mice were then gavaged with 10^9 C. jejuni cfu/mouse for 14 days. To inhibit mTOR signaling, mice were injected daily intraperitoneally (i.p.) with rapamycin (1.5 mg/kg) (Fisher Scientific, Hampton, N.H., United States of America). At the end of the experiment, mice were euthanized using CO2 intoxication. Colon, mesenteric lymph nodes (MLN) and spleen were collected for further processing RNA, protein or C. jejuni culture on Campylobacter selective blood plates (Remel, Thermo Scientific, Hampton, N.H., United States of America) for 48 h at 37° C. using the GasPak system (Becton Dickinson, Franklin Lakes, N.J., United States of America). […] Colons were fixed in 10% buffered formalin (Fisher Scientific, Hampton, N.H., United States of America) overnight, paraffin-embedded, sectioned, and stained with H&E for histological evaluation. Images were acquired using a DP71 camera and DP Controller 3.1.1.276 (Olympus, Center Valley, Pa., United States of America). Intestinal inflammation was scored by evaluating the degree of lamina propria immune cell infiltration, goblet cell depletion, architectural distortion, as well as crypt hyperplasia, ulceration, and abscesses using a score from 0-4. (Lippert et al., 2009). Cecal and colonic inflammation induced by S. typhimurium was evaluated using a score from 0-13 as described. (Hapfelmeier et al., 2005).
MLN and spleen were aseptically resected. Colon tissue was opened, resected and washed three times in sterile PBS. […] C. jejuni colonies were counted and data presented as colony forming unit (cfu)/g tissue.

[1] = colon, rapamycin-treated, C. jejuni-infected mice
[2] = supernatant of cultured colon explants
[3] = wortmannin vs vehicle-treated infected mice

Structure (SMILES)	attenuation of C. jejuni induced I1-1β mRNA accumulation (II1β mRNA; [1]) [%]	attenuation of C. jejuni induced Cxcl2 mRNA accumulation (Cxcl2 mRNA; [1]) [%]	attenuation of C. jejuni induced II-17a mRNA accumulation (II-17a mRNA; [1]) [%]	C. jejuni-induced colonic II-12p40 mRNA accumulation (II-12p40 mRNA)	C. jejuni-induced colonic Tnfα mRNA accumulation (Tnfα mRNA)	reduction of IL-1β production (IL-1β; MLN) [%]	reduction of IL-1β production (IL-1β; [2]) [%]	attenuation of IL-17 production (IL-17; MLN) [%]	reduction of secreted IL-17 (IL-17; [2]) [%]	decrease of ratio of Gr-1+/CD45+ cells in the blood (Gr-1+/CD45+ cells) [%]	reduction of C. jejuni colonic invasion (culture count) (C. jejuni) [%]	block of C. jejuni-induced I11β mRNA accumulation (II1β mRNA; [3]) [%]	block of C. jejuni-induced Cxcl2 mRNA accumulation (Cxcl2 mRNA; [3]) [%]	block of C. jejuni-induced II17a mRNA accumulation (II-17a mRNA; [3]) [%]
CO[C@H]1C[C@@H]2CC[C@@H](C)[C@@](O)(O2)C(=O)C(=O)N2CCCC[C@H]2C(=O)O[C@H]([C@H](C)C[C@@H]2CC[C@@H](O)[C@H](OC)C2)CC(=O)[C@H](C)/C=C(\C)[C@@H](O)[C@@H](OC)C(=O)[C@H](C)C[C@H](C)/C=C/C=C/C=C/1C [rapamycin]	79	75	92	not significantly inhibited	not significantly inhibited	41	59	82	94	41	90	–	–	–
COC[C@H]1OC(=O)c2coc3c2[C@@]1(C)C1=C(C3=O)[C@@H]2CCC(=O)[C@@]2(C)C[C@H]1OC(C)=O [wortmannin]	–	–	–	–	–	–	–	–	–	–	–	50	77	78

— patent US20130225629A1, “TARGETING PI3K/MTOR SIGNALLING AND NEUTROPHIL RECRUITMENT FOR TREATMENT OF ENTERITIS” (THE UNIVERSITY OF NORTH CAROLINA AT CHAPEL HILL, priority 2012, published 2013)
